In patent US7615231B2, “Methods for enhancing the morphology, tone, texture and/or appearance of skin or hair using a meadowlactone” (Fan Tech, Ltd., priority 2005, dated 2009):

Assays:
[1] = Solubility of the Meadowlactone as a function of pH in aqueous systems; type: physicochemical
Procedure: Solubility of the Meadowlactone as a function of pH was determined in aqueous systems.
In these experiments, 2 weight percent of Meadowlactone was mixed with water at room temperature. The pH of this mixture was varied, starting at an acidic pH and terminating at an alkaline pH. The clarity of the mixture was observed, and the mixture was photographed, at different pH levels (varying by one pH unit at a time).

skin = assay: Initial use trials of skin creams containing the Meadowlactone; type: in vivo
[2] = Analytical results on purified Meadowlactone (stability); type: physicochemical
Source text: The purified Meadowlactone was identified and subsequently quantified by infrared spectroscopy and HPLC coupled with an evaporative light-scattering detector.

## CCCCCCCCCCCCCCCC1CCCC(=O)O1 (stereo not shown) [Meadowlactone, Meadowfoam Delta Lactone]
[1]; 2 weight percent in water at room temperature, pH varied from acidic to alkaline, clarity observed
  oil / water solubility of the isomeric structures: oil soluble
[1]; pH from about 4.5 to about 5.5
  forms present at the pH reported for human skin: both the Meadowlactone and the 5-hydroxy fatty acid exist together in equilibrium
skin
  skin moisturization: very effective
[2]
  stability: extended stability
